Reference: the supplement of paper PMC11061612

Assays:
Assay in all cases: Bliss excess, mean over the matrix (fraction); higher = more synergy
[1] = system: MV-4-11 (Acute Myeloid Leukemia)
In short: (§1)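 Cell lines in DMEM/F12 or RPMI with 10% FBS were plated in 1536-well plates, held 24 hours at 37°C, 5% CO2, then given two-drug dose matrices for 72 hours (DMSO typically 0.2%). Viability was read by CellTiter-Glo 2.0 luminescence and scaled as inhibition from 0 (vehicle wells) to 1 (blank wells). Combination Emax is the second-highest inhibition in the matrix; Bliss excess is observed combination effect minus expected EA + EB − EA·EB, EA and EB being single-agent effects.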

[2] = system: HCC1937 (Breast Carcinoma)
In short: as §1

[3] = system: CADO-ES1 (Ewing's Sarcoma)
In short: as §1

[4] = system: SW872 (Other Solid Carcinomas)
In short: as §1

[5] = system: EW-1 (Ewing's Sarcoma)
In short: as §1

[6] = system: KMRC-1 (Kidney Carcinoma)
In short: as §1

[7] = system: NCI-H1092 (Small Cell Lung Carcinoma)
In short: as §1

[8] = system: Hey (Ovarian Carcinoma)
In short: as §1

[9] = system: EFO-21 (Ovarian Carcinoma)
In short: as §1

[10] = system: SW982 (Other Solid Carcinomas)
In short: as §1

[11] = system: Ca-Ski (Cervical Carcinoma)
In short: as §1

[12] = system: SNU-387 (Hepatocellular Carcinoma)
In short: as §1

[13] = system: HAL-01 (B-Lymphoblastic Leukemia)
In short: as §1

[14] = system: HCC2998 (Colorectal Carcinoma)
In short: as §1

[15] = system: KOPN-8 (B-Lymphoblastic Leukemia)
In short: as §1

[16] = system: SK-LU-1 (Lung Adenocarcinoma)
In short: as §1

[17] = system: NCI-H1993 (Lung Adenocarcinoma)
In short: as §1

[18] = system: KGN (Other Solid Carcinomas)
In short: as §1

[19] = system: EJM (Plasma Cell Myeloma)
In short: as §1

[20] = system: MOG-G-UVW (Low Grade Glioma)
In short: as §1

Compound	Bliss excess [1]	Bliss excess [2]	Bliss excess [3]	Bliss excess [4]	Bliss excess [5]	Bliss excess [6]	Bliss excess [7]	Bliss excess [8]	Bliss excess [9]	Bliss excess [10]	Bliss excess [11]	Bliss excess [12]	Bliss excess [13]	Bliss excess [14]	Bliss excess [15]	Bliss excess [16]	Bliss excess [17]	Bliss excess [18]	Bliss excess [19]	Bliss excess [20]
Cc1c2c(nn1C)CSCc1cc(n(C)n1)CSc1cc(c3ccccc3c1)OCCCc1c(C(=O)O)n(C)c3c-2c(Cl)ccc13 [AZD5991] + CN(C)CCCOc1ccc(-c2ccc3ncc4c(c3c2)n(C2CCOCC2)c(=O)n4C)cn1 [AZD0156] (first compound max 1 µM, 7x7, partner max 1 µM)	-0.0395	0.0106	-0.0098	0.0164	0.0051	-0.0412	0.0063	-0.0039	-0.0062	-0.0485	0.0319	-0.0536	-0.0246	0.0003	-0.118	-0.0889	-0.0369	-0.0314	0.0241	-0.0104
Cc1c2c(nn1C)CSCc1cc(n(C)n1)CSc1cc(c3ccccc3c1)OCCCc1c(C(=O)O)n(C)c3c-2c(Cl)ccc13 [AZD5991] + C[C@@H]1COCCN1C2=NC(=NC(=C2)C3(CC3)[S@](=N)(=O)C)C4=C5C=CNC5=NC=C4 [AZD6738] (first compound max 1 µM, 7x7, partner max 10 µM)	0.0008	0.061	0.0135	0.0323	0.0344	0.0201	0.0651	0.012	0.016	-0.0086	0.0267	0.0408	-0.0042	0.044	-0.0067	-0.0032	-0.0216	0.0182	0.0277	0.0058
Cc1c2c(nn1C)CSCc1cc(n(C)n1)CSc1cc(c3ccccc3c1)OCCCc1c(C(=O)O)n(C)c3c-2c(Cl)ccc13 [AZD5991] + C[C@@H](Nc1cc(F)cc(F)c1)c1cc(C(=O)N(C)C)cc2c(=O)cc(N3CCOCC3)oc12 [AZD8186] (first compound max 1 µM, 7x7, partner max 3 µM)	0.0375	-0.0001	-0.0479	-0.0214	-0.0431	-0.0264	0.0172	0.0023	-0.0522	-0.0261	0.0515	-0.0089	0.015	0.0026	0.0014	0.0004	0.0246	-0.0528	-0.0129	-0.0451
Cc1c2c(nn1C)CSCc1cc(n(C)n1)CSc1cc(c3ccccc3c1)OCCCc1c(C(=O)O)n(C)c3c-2c(Cl)ccc13 [AZD5991] + Cc1cc2ncnn2cc1Nc1ncc2c(n1)n(C1CCOCC1)c(=O)n2C [AZD7648] (first compound max 1 µM, 7x7, partner max 10 µM)	-0.0151	-0.015	-0.0296	-0.0235	-0.0108	-0.0161	-0.0458	-0.015	-0.116	-0.0232	-0.0079	-0.0318	0.0227	-0.0317	-0.0816	-0.062	-0.0225	-0.0404	0.0164	0.0048
C[C@@H]1COCCN1c1cc(C2([S@](C)(=N)=O)CC2)nc(-c2ccnc3[nH]ccc23)n1 [AZD6738] + O=C(c1cc(Cc2n[nH]c(=O)c3ccccc23)ccc1F)N1CCN(C(=O)C2CC2)CC1 [Olaparib] (first compound max 10 µM, 7x7, partner max 10 µM)	-0.0566	-0.0665	0.03	0.0206	0.0174	0.0003	-0.0333	0.0379	-0.0375	-0.0202	0.0414	-0.0225	0.003	0.0443	-0.0358	-0.03	0.033	-0.0087	-0.0078	0.0629
NC1(C(=O)N[C@@H](CCO)c2ccc(Cl)cc2)CCN(c2ncnc3[nH]ccc23)CC1 [Capivasertib] + CC(=O)c1c(C)c2cnc(Nc3ccc(N4CCNCC4)cn3)nc2n(C2CCCC2)c1=O [Palbociclib] (first compound max 10 µM, 7x7, partner max 10 µM)	-0.0164	-0.0236	-0.0849	0.0237	-0.0124	-0.0272	-0.0612	0.0123	-0.0533	-0.0523	0.025	-0.0515	-0.0425	-0.0745	-0.0079	-0.0139	0.0642	0.0128	-0.0189	0.0666
NC1(C(=O)N[C@@H](CCO)c2ccc(Cl)cc2)CCN(c2ncnc3[nH]ccc23)CC1 [Capivasertib] + CC(C)n1c(=O)n(C)c2cnc3cc(F)c(-c4ccc(OCCCN5CCCCC5)nc4)cc3c21 [AZD1390] (first compound max 10 µM, 7x7, partner max 0.3 µM)	-0.0393	-0.0666	-0.039	-0.0562	-0.0622	-0.0645	-0.0596	-0.0766	-0.0361	-0.0696	-0.0436	-0.101	-0.0354	-0.0275	-0.0611	-0.0747	-0.0311	-0.047	-0.0543	-0.0278
NC1(C(=O)N[C@@H](CCO)c2ccc(Cl)cc2)CCN(c2ncnc3[nH]ccc23)CC1 [Capivasertib] + CCN(CCO)CCCOc1ccc2c(Nc3cc(CC(=O)Nc4cccc(F)c4)[nH]n3)ncnc2c1 [AZD2811] (first compound max 10 µM, 7x7, partner max 1 µM)	-0.0436	0.0005	-0.0618	-0.0384	0.0388	-0.0421	-0.0137	0.0375	-0.0156	0.0184	0.0121	-0.0504	-0.0779	-0.0095	-0.0632	-0.103	0.0065	-0.0623	0.0798	0.0415
NC1(C(=O)N[C@@H](CCO)c2ccc(Cl)cc2)CCN(c2ncnc3[nH]ccc23)CC1 [Capivasertib] + COc1nnc2ccc(N3CCC(c4ccc(OCCN5CCN(C)C(=O)[C@H]5C)cc4)CC3)nn12 [AZD5153] (first compound max 10 µM, 7x7, partner max 1 µM)	0.0074	0.0189	0.0331	-0.0399	0.0867	0.0129	-0.0087	0.0206	-0.046	-0.0535	0.0046	-0.004	-0.0429	-0.0046	-0.0463	0.0081	0.0372	0.0358	0.0732	0.0173
NC1(C(=O)N[C@@H](CCO)c2ccc(Cl)cc2)CCN(c2ncnc3[nH]ccc23)CC1 [Capivasertib] + C[C@@H]1COCCN1C2=NC(=NC(=C2)C3(CC3)[S@](=N)(=O)C)C4=C5C=CNC5=NC=C4 [AZD6738] (first compound max 10 µM, 7x7, partner max 10 µM)	-0.0546	-0.0142	-0.0284	-0.0244	0.0229	-0.0504	-0.0055	-0.0402	-0.0322	-0.0382	0.0076	-0.0613	-0.0267	-0.0629	-0.0253	-0.0162	-0.0598	-0.0783	0.0305	-0.0348
NC1(C(=O)N[C@@H](CCO)c2ccc(Cl)cc2)CCN(c2ncnc3[nH]ccc23)CC1 [Capivasertib] + Cn1cnc2c(F)c(Nc3ccc(Br)cc3Cl)c(C(=O)NOCCO)cc21 [Selumetinib] (first compound max 10 µM, 7x7, partner max 10 µM)	0.0842	-0.0079	-0.0008	0.0256	0.0819	0.0071	-0.0225	-0.0041	-0.0352	0.0235	0.0246	-0.0521	0.0548	-0.0654	0.106	-0.0486	0.0372	-0.0041	0.08	0.0622
CS(=O)(=O)CCNCc1ccc(-c2ccc3ncnc(Nc4ccc(OCc5cccc(F)c5)c(Cl)c4)c3c2)o1 [Lapatinib] + C[C@@H](Oc1cc(-c2cnn(C3CCNCC3)c2)cnc1N)c1c(Cl)ccc(F)c1Cl [Crizotinib] (first compound max 10 µM, 7x7, partner max 10 µM)	-0.0106	-0.0404	-0.0023	-0.0069	-0.0239	-0.0725	0.0103	-0.0526	-0.0148	-0.0579	-0.042	-0.0754	-0.0265	-0.044	-0.0482	-0.0582	0.0268	-0.0702	-0.0001	0.0013
CC(=O)c1c(C)c2cnc(Nc3ccc(N4CCNCC4)cn3)nc2n(C2CCCC2)c1=O [Palbociclib] + CC1(C)CCC(CN2CCN(c3ccc(C(=O)NS(=O)(=O)c4ccc(NCC5CCOCC5)c([N+](=O)[O-])c4)c(Oc4cnc5[nH]ccc5c4)c3)CC2)=C(c2ccc(Cl)cc2)C1 [Venetoclax] (first compound max 10 µM, 7x7, partner max 1 µM)	-0.0213	-0.0578	-0.177	-0.0244	0.0441	-0.0653	-0.0224	0.0511	-0.0638	-0.0508	-0.0543	-0.0558	-0.0461	-0.0212	-0.0341	0.0024	0.0108	0.079	-0.0211	-0.0282
CC(=O)c1c(C)c2cnc(Nc3ccc(N4CCNCC4)cn3)nc2n(C2CCCC2)c1=O [Palbociclib] + Cc1c2c(nn1C)CSCc1cc(n(C)n1)CSc1cc(c3ccccc3c1)OCCCc1c(C(=O)O)n(C)c3c-2c(Cl)ccc13 [AZD5991] (first compound max 10 µM, 7x7, partner max 1 µM)	0.0127	-0.0498	-0.0356	-0.0184	0.0294	-0.0363	-0.0646	-0.0205	-0.0458	-0.0151	-0.0239	-0.0515	0.0597	-0.0746	0.0082	-0.0693	0.0186	-0.0665	-0.0517	-0.0122
